Tests used:
Test in all cases: relative viability (nuclei count vs DMSO), 5 days (fraction); higher = more cells survive
NCI-H1666 = tested on: NCI-H1666
Outline: (§1)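 After 5 days of treatment, lung cancer cells in 1536-well plates were fixed and stained in a single step (final 0.05% Triton X-100, 1% formaldehyde, 1 ug/ml Hoechst) and their nuclei counted on 4× images. Treatment had been applied by pin tool the day after seeding as one drug alone or as a fixed anchor-drug dose with five library-drug doses (not always all listed) in √10 steps. Relative viability is the nuclei count of treated wells divided by that of vehicle wells, and values are medians of duplicate plates.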

LCLC-97TM1 = tested on: LCLC-97TM1
Outline: as §1

CAL-12T = tested on: CAL-12T
Outline: as §1

NCI-H838 = tested on: NCI-H838
Outline: as §1

NCI-H1651 = tested on: NCI-H1651
Outline: as §1

NCI-H1395 = tested on: NCI-H1395
Outline: as §1

NCI-H1355 = tested on: NCI-H1355
Outline: as §1

NCI-H2085 = tested on: NCI-H2085
Outline: as §1

NCI-H2087 = tested on: NCI-H2087
Outline: as §1

NCI-H322M = tested on: NCI-H322M
Outline: as §1

NCI-H358 = tested on: NCI-H358
Outline: as §1

NCI-H1915 = tested on: NCI-H1915
Outline: as §1

SK-MES-1 = tested on: SK-MES-1
Outline: as §1

UMC-11 = tested on: UMC-11
Outline: as §1

NCI-H661 = tested on: NCI-H661
Outline: as §1

LK-2 = tested on: LK-2
Outline: as §1

PC-14 = tested on: PC-14
Outline: as §1

NCI-H2228 = tested on: NCI-H2228
Outline: as §1

H3255 = tested on: H3255
Outline: as §1

A-427 = tested on: A-427
Outline: as §1

ABC-1 = tested on: ABC-1
Outline: as §1

PC-3 [JPC-3] = tested on: PC-3 [JPC-3]
Outline: as §1

NCI-H1792 = tested on: NCI-H1792
Outline: as §1

## Cc1cnc(-c2cnc(NCCNc3ccc(C#N)cn3)nc2-c2ccc(Cl)cc2Cl)[nH]1 + CCNC(=O)c1noc(-c2cc(C(C)C)c(O)cc2O)c1-c1ccc(CN2CCOCC2)cc1 [Luminespib] (partner 0.01 µM)
NCI-H1666; first compound 0.08 µM
  relative viability: 1.04
NCI-H1666; first compound 0.253 µM
  relative viability: 1.04
NCI-H1666; first compound 0.8 µM
  relative viability: 1.04
NCI-H1666; first compound 2.53 µM
  relative viability: 1.08
LCLC-97TM1; first compound 0.08 µM
  relative viability: 0.748
LCLC-97TM1; first compound 0.8 µM
  relative viability: 0.959
LCLC-97TM1; first compound 2.53 µM
  relative viability: 0.787
CAL-12T; first compound 0.08 µM
  relative viability: 0.932
CAL-12T; first compound 0.253 µM
  relative viability: 0.259
CAL-12T; first compound 0.8 µM
  relative viability: 0.387
CAL-12T; first compound 2.53 µM
  relative viability: 0.242
NCI-H838; first compound 0.08 µM
  relative viability: 0.326
NCI-H838; first compound 0.253 µM
  relative viability: 0.287
NCI-H838; first compound 0.8 µM
  relative viability: 0.333
NCI-H838; first compound 2.53 µM
  relative viability: 0.301
NCI-H1651; first compound 0.08 µM
  relative viability: 1.03
NCI-H1651; first compound 0.253 µM
  relative viability: 0.864
NCI-H1651; first compound 0.8 µM
  relative viability: 0.762
NCI-H1651; first compound 2.53 µM
  relative viability: 0.883
NCI-H1395; first compound 0.08 µM
  relative viability: 0.627
NCI-H1395; first compound 0.253 µM
  relative viability: 0.708
NCI-H1395; first compound 0.8 µM
  relative viability: 0.65
NCI-H1395; first compound 2.53 µM
  relative viability: 0.677
NCI-H1355; first compound 0.08 µM
  relative viability: 0.704
NCI-H1355; first compound 0.253 µM
  relative viability: 0.698
NCI-H1355; first compound 0.8 µM
  relative viability: 0.677
NCI-H1355; first compound 2.53 µM
  relative viability: 0.744
NCI-H2085; first compound 0.08 µM
  relative viability: 0.456
NCI-H2085; first compound 0.253 µM
  relative viability: 0.486
NCI-H2085; first compound 0.8 µM
  relative viability: 0.462
NCI-H2085; first compound 2.53 µM
  relative viability: 0.339
NCI-H2087; first compound 0.08 µM
  relative viability: 0.128
NCI-H2087; first compound 0.253 µM
  relative viability: 0.128
NCI-H2087; first compound 0.8 µM
  relative viability: 0.208
NCI-H2087; first compound 2.53 µM
  relative viability: 0.175
NCI-H322M; first compound 0.08 µM
  relative viability: 0.969
NCI-H322M; first compound 0.253 µM
  relative viability: 0.808
NCI-H322M; first compound 0.8 µM
  relative viability: 0.857
NCI-H322M; first compound 2.53 µM
  relative viability: 1.03
NCI-H358; first compound 0.08 µM
  relative viability: 0.24
NCI-H358; first compound 0.253 µM
  relative viability: 0.317
NCI-H358; first compound 0.8 µM
  relative viability: 0.283
NCI-H358; first compound 2.53 µM
  relative viability: 0.0322
NCI-H1915; first compound 0.08 µM
  relative viability: 0.808
NCI-H1915; first compound 0.253 µM
  relative viability: 0.587
NCI-H1915; first compound 0.8 µM
  relative viability: 0.753
NCI-H1915; first compound 2.53 µM
  relative viability: 0.779
SK-MES-1; first compound 0.08 µM
  relative viability: 0.859
SK-MES-1; first compound 0.253 µM
  relative viability: 0.757
SK-MES-1; first compound 0.8 µM
  relative viability: 0.838
SK-MES-1; first compound 2.53 µM
  relative viability: 0.921
UMC-11; first compound 0.08 µM
  relative viability: 1.02
UMC-11; first compound 0.253 µM
  relative viability: 0.934
UMC-11; first compound 0.8 µM
  relative viability: 1.03
UMC-11; first compound 2.53 µM
  relative viability: 0.995
NCI-H661; first compound 0.08 µM
  relative viability: 0.889
NCI-H661; first compound 0.253 µM
  relative viability: 0.881
NCI-H661; first compound 0.8 µM
  relative viability: 0.904
NCI-H661; first compound 2.53 µM
  relative viability: 0.829
LK-2; first compound 0.08 µM
  relative viability: 0.197
LK-2; first compound 0.253 µM
  relative viability: 0.227
LK-2; first compound 0.8 µM
  relative viability: 0.239
LK-2; first compound 2.53 µM
  relative viability: 0.205
PC-14; first compound 0.08 µM
  relative viability: 0.151
PC-14; first compound 0.253 µM
  relative viability: 0.24
PC-14; first compound 0.8 µM
  relative viability: 0.107
PC-14; first compound 2.53 µM
  relative viability: 0.18
NCI-H2228; first compound 0.08 µM
  relative viability: 0.131
NCI-H2228; first compound 0.253 µM
  relative viability: 0.156
NCI-H2228; first compound 0.8 µM
  relative viability: 0.133
NCI-H2228; first compound 2.53 µM
  relative viability: 0.159
H3255; first compound 0.08 µM
  relative viability: 0.96
H3255; first compound 0.253 µM
  relative viability: 0.933
H3255; first compound 0.8 µM
  relative viability: 0.977
H3255; first compound 2.53 µM
  relative viability: 0.835
A-427; first compound 0.08 µM
  relative viability: 0.954
A-427; first compound 0.253 µM
  relative viability: 0.828
A-427; first compound 0.8 µM
  relative viability: 0.814
A-427; first compound 2.53 µM
  relative viability: 0.916
ABC-1; first compound 0.08 µM
  relative viability: 0.591
ABC-1; first compound 2.53 µM
  relative viability: 0.82
PC-3 [JPC-3]; first compound 0.08 µM
  relative viability: 0.795
PC-3 [JPC-3]; first compound 0.253 µM
  relative viability: 0.706
PC-3 [JPC-3]; first compound 0.8 µM
  relative viability: 0.675
PC-3 [JPC-3]; first compound 2.53 µM
  relative viability: 0.661
NCI-H1792; first compound 0.08 µM
  relative viability: 0.668
NCI-H1792; first compound 0.253 µM
  relative viability: 0.432
NCI-H1792; first compound 0.8 µM
  relative viability: 0.493
NCI-H1792; first compound 2.53 µM
  relative viability: 0.392
